Reference: the NIST ThermoML archive (doi:10.1021/acs.jced.5b00105)
Numbers after ± are expanded uncertainties.

Assay: xn = mol fraction of the nth substance listed
Conditions: for surface tension liquid-gas: Drop volume; for viscosity / mass density: 100 kPa, Liquid; for viscosity: Concentric cylinders viscometry; for mass density: Vibrating tube method

CCCCC1CCCCC1 [butylcyclohexane] + CC(C)CC(C)(C)C
Conditions	mass density [kg/m3]	surface tension liquid-gas [mN/m]	viscosity [mPa·s]
293.15 K, x1 = 0.0999	704.07 ± 0.19	–	0.567 ± 0.091
293.15 K, x1 = 0.1008	–	19.63 ± 0.24	–
293.15 K, x1 = 0.2	–	20.32 ± 0.24	–
293.15 K, x1 = 0.2002	715.88 ± 0.18	–	0.623 ± 0.1
293.15 K, x1 = 0.3001	727.35 ± 0.18	21.02 ± 0.24	0.679 ± 0.11
293.15 K, x1 = 0.3996	738.44 ± 0.17	–	0.744 ± 0.12
293.15 K, x1 = 0.3999	–	21.75 ± 0.24	–
293.15 K, x1 = 0.5004	–	22.42 ± 0.24	–
293.15 K, x1 = 0.5005	749.38 ± 0.17	–	0.816 ± 0.13
293.15 K, x1 = 0.5999	–	23.17 ± 0.24	–
293.15 K, x1 = 0.6003	759.9 ± 0.17	–	0.896 ± 0.14
293.15 K, x1 = 0.6994	770.07 ± 0.16	–	0.981 ± 0.16
293.15 K, x1 = 0.6995	–	23.97 ± 0.24	–
293.15 K, x1 = 0.7998	–	24.87 ± 0.24	–
293.15 K, x1 = 0.8	780.14 ± 0.16	–	1.078 ± 0.17
293.15 K, x1 = 0.9	–	25.85 ± 0.24	–
293.15 K, x1 = 0.9001	789.89 ± 0.15	–	1.184 ± 0.19
293.15 K, x1 = 1	799.37 ± 0.15	26.81 ± 0.25	1.304 ± 0.21
298.15 K, x1 = 0.0999	700.02 ± 0.19	–	0.537 ± 0.086
298.15 K, x1 = 0.1008	–	19 ± 0.24	–
298.15 K, x1 = 0.2	–	19.59 ± 0.24	–
298.15 K, x1 = 0.2002	711.89 ± 0.18	–	0.588 ± 0.094
298.15 K, x1 = 0.3001	723.39 ± 0.18	20.24 ± 0.24	0.64 ± 0.1
298.15 K, x1 = 0.3996	734.52 ± 0.17	–	0.698 ± 0.11
298.15 K, x1 = 0.3999	–	20.9 ± 0.24	–
298.15 K, x1 = 0.5004	–	21.56 ± 0.24	–
298.15 K, x1 = 0.5005	745.49 ± 0.17	–	0.763 ± 0.12
298.15 K, x1 = 0.5999	–	22.29 ± 0.24	–
298.15 K, x1 = 0.6003	756.05 ± 0.17	–	0.835 ± 0.13
298.15 K, x1 = 0.6994	766.27 ± 0.16	–	0.912 ± 0.15
298.15 K, x1 = 0.6995	–	23.1 ± 0.24	–
298.15 K, x1 = 0.7998	–	23.95 ± 0.24	–
298.15 K, x1 = 0.8	776.35 ± 0.16	–	0.998 ± 0.16
298.15 K, x1 = 0.9	–	24.93 ± 0.24	–
298.15 K, x1 = 0.9001	786.12 ± 0.16	–	1.093 ± 0.17
298.15 K, x1 = 1	795.63 ± 0.15	25.87 ± 0.24	1.199 ± 0.19
303.15 K, x1 = 0.0999	695.93 ± 0.19	18.58 ± 0.24	0.51 ± 0.082
303.15 K, x1 = 0.2002	707.85 ± 0.18	19.11 ± 0.24	0.556 ± 0.089
303.15 K, x1 = 0.3001	719.4 ± 0.18	19.81 ± 0.24	0.605 ± 0.097
303.15 K, x1 = 0.3996	730.57 ± 0.18	20.49 ± 0.24	0.657 ± 0.11
303.15 K, x1 = 0.5005	741.58 ± 0.17	21.39 ± 0.24	0.717 ± 0.12
303.15 K, x1 = 0.6003	752.17 ± 0.17	21.79 ± 0.24	0.781 ± 0.12
303.15 K, x1 = 0.6994	762.43 ± 0.16	22.68 ± 0.24	0.851 ± 0.14
303.15 K, x1 = 0.8	772.54 ± 0.16	23.51 ± 0.24	0.929 ± 0.15
303.15 K, x1 = 0.9001	782.34 ± 0.16	24.53 ± 0.24	1.014 ± 0.16
303.15 K, x1 = 1	791.88 ± 0.15	25.49 ± 0.24	1.109 ± 0.18
308.15 K, x1 = 0.0999	691.83 ± 0.19	–	0.486 ± 0.078
308.15 K, x1 = 0.1008	–	18.07 ± 0.24	–
308.15 K, x1 = 0.2	–	18.59 ± 0.24	–
308.15 K, x1 = 0.2002	703.8 ± 0.18	–	0.528 ± 0.085
308.15 K, x1 = 0.3001	715.4 ± 0.18	19.17 ± 0.24	0.573 ± 0.092
308.15 K, x1 = 0.3996	726.61 ± 0.18	–	0.621 ± 0.1
308.15 K, x1 = 0.3999	–	19.76 ± 0.24	–
308.15 K, x1 = 0.5004	–	20.41 ± 0.24	–
308.15 K, x1 = 0.5005	737.66 ± 0.17	–	0.675 ± 0.11
308.15 K, x1 = 0.5999	–	21.12 ± 0.24	–
308.15 K, x1 = 0.6003	748.29 ± 0.17	–	0.734 ± 0.12
308.15 K, x1 = 0.6994	758.58 ± 0.16	–	0.797 ± 0.13
308.15 K, x1 = 0.6995	–	21.94 ± 0.24	–
308.15 K, x1 = 0.7998	–	22.79 ± 0.24	–
308.15 K, x1 = 0.8	768.72 ± 0.16	–	0.868 ± 0.14
308.15 K, x1 = 0.9	–	23.73 ± 0.24	–
308.15 K, x1 = 0.9001	778.55 ± 0.16	–	0.945 ± 0.15
308.15 K, x1 = 1	788.12 ± 0.15	24.73 ± 0.24	1.031 ± 0.17
313.15 K, x1 = 0.0999	687.7 ± 0.19	–	0.464 ± 0.074
313.15 K, x1 = 0.2002	699.73 ± 0.19	–	0.502 ± 0.08
313.15 K, x1 = 0.3001	711.37 ± 0.18	–	0.544 ± 0.087
313.15 K, x1 = 0.3996	722.64 ± 0.18	–	0.588 ± 0.094
313.15 K, x1 = 0.5005	733.72 ± 0.17	–	0.638 ± 0.1
313.15 K, x1 = 0.6003	744.39 ± 0.17	–	0.691 ± 0.11
313.15 K, x1 = 0.6994	754.72 ± 0.17	–	0.749 ± 0.12
313.15 K, x1 = 0.8	764.89 ± 0.16	–	0.814 ± 0.13
313.15 K, x1 = 0.9001	774.76 ± 0.16	–	0.883 ± 0.14
313.15 K, x1 = 1	784.35 ± 0.15	–	0.961 ± 0.15
318.15 K, x1 = 0.0999	683.64 ± 0.19	–	0.446 ± 0.072
318.15 K, x1 = 0.2002	695.56 ± 0.19	–	0.482 ± 0.077
318.15 K, x1 = 0.3001	707.24 ± 0.18	–	0.519 ± 0.083
318.15 K, x1 = 0.3996	718.6 ± 0.18	–	0.561 ± 0.09
318.15 K, x1 = 0.5005	729.73 ± 0.17	–	0.607 ± 0.097
318.15 K, x1 = 0.6003	740.43 ± 0.17	–	0.654 ± 0.11
318.15 K, x1 = 0.6994	750.82 ± 0.17	–	0.708 ± 0.11
318.15 K, x1 = 0.8	760.98 ± 0.16	–	0.765 ± 0.12
318.15 K, x1 = 0.9001	770.84 ± 0.16	–	0.829 ± 0.13
318.15 K, x1 = 1	780.49 ± 0.15	–	0.9 ± 0.14
323.15 K, x1 = 0.0999	679.45 ± 0.19	–	0.427 ± 0.068
323.15 K, x1 = 0.2002	691.42 ± 0.19	–	0.46 ± 0.074
323.15 K, x1 = 0.3001	703.16 ± 0.18	–	0.496 ± 0.08
323.15 K, x1 = 0.3996	714.56 ± 0.18	–	0.534 ± 0.086
323.15 K, x1 = 0.5005	725.73 ± 0.18	–	0.575 ± 0.092
323.15 K, x1 = 0.6003	736.49 ± 0.17	–	0.62 ± 0.099
323.15 K, x1 = 0.6994	746.95 ± 0.17	–	0.668 ± 0.11
323.15 K, x1 = 0.8	757.16 ± 0.16	–	0.721 ± 0.12
323.15 K, x1 = 0.9001	767.06 ± 0.16	–	0.779 ± 0.12
323.15 K, x1 = 1	776.7 ± 0.16	–	0.844 ± 0.14
333.15 K, x1 = 0.0999	670.99 ± 0.19	–	0.396 ± 0.064
333.15 K, x1 = 0.2002	683.12 ± 0.19	–	0.424 ± 0.068
333.15 K, x1 = 0.3001	694.98 ± 0.19	–	0.454 ± 0.073
333.15 K, x1 = 0.3996	706.46 ± 0.18	–	0.487 ± 0.078
333.15 K, x1 = 0.5005	717.7 ± 0.18	–	0.522 ± 0.084
333.15 K, x1 = 0.6003	728.53 ± 0.17	–	0.56 ± 0.09
333.15 K, x1 = 0.6994	739.06 ± 0.17	–	0.601 ± 0.096
333.15 K, x1 = 0.8	749.37 ± 0.17	–	0.646 ± 0.1
333.15 K, x1 = 0.9001	759.38 ± 0.16	–	0.695 ± 0.11
333.15 K, x1 = 1	769.09 ± 0.16	–	0.749 ± 0.12
343.15 K, x1 = 0.0999	662.4 ± 0.2	–	0.369 ± 0.059
343.15 K, x1 = 0.2002	674.66 ± 0.19	–	0.394 ± 0.063
343.15 K, x1 = 0.3001	686.64 ± 0.19	–	0.42 ± 0.067
343.15 K, x1 = 0.3996	698.25 ± 0.18	–	0.448 ± 0.072
343.15 K, x1 = 0.5005	709.63 ± 0.18	–	0.48 ± 0.077
343.15 K, x1 = 0.6003	720.57 ± 0.18	–	0.51 ± 0.082
343.15 K, x1 = 0.6994	731.21 ± 0.17	–	0.545 ± 0.087
343.15 K, x1 = 0.8	741.57 ± 0.17	–	0.584 ± 0.094
343.15 K, x1 = 0.9001	751.62 ± 0.16	–	0.626 ± 0.1
343.15 K, x1 = 1	761.43 ± 0.16	–	0.671 ± 0.11
